Laboratory results published in PubChem BioAssay AID179 (DTP/NCI, 2004).
The source made the active and inactive calls.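 The calls were made as follows: active = compounds giving half or more protection of infected cells from virus-caused growth loss, again on retest; inactive = the rest.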

Tested on: CEM cells HIV-1 protection, formazan growth assay
Assay: NCI AIDS Antiviral Assay
Conditions: for IC50: measured here: growth of uninfected CEM cells
Method in brief: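 Protection of CEM cells against HIV-1 measured as cell growth via soluble formazan read-out, with five concentrations tested on both infected and uninfected cells; failure to protect may reflect toxicity.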

N#C[C@H](OC1OC(COC(=O)/C=C/c2ccc(O)c(O)c2)C(O)C(O)C1O)c1ccccc1 (stereo partly specified)
outcome: inactive

N#CCCC1(CCC#N)CCCCCCCCC(CCC#N)(CCC#N)C(=O)C1=O
EC50: > 200 µM
IC50: > 200 µM

Cc1ccc(C)c(N2C(=O)C(=O)C(c3nc4ccccc4o3)/C(=N/N)C2=O)c1 (stereo unspecified)
outcome: inactive

CC1CC2CC(=O)CC3(C1)C2CCCN3CCCO (stereo unspecified)
outcome: inactive

CC(C)=CCNc1ncnc2c1ncn2CCC#N
EC50: > 200 µM
IC50: > 200 µM

O=c1c2cc([N+](=O)[O-])ccc2n2n1Cc1ccccc1CC2
EC50: > 200 µM
IC50: > 200 µM

C[C@@H](CCO)OC1OC(COC(=O)C(C)(C)C)C(OC(=O)C(C)(C)C)C(OC(=O)C(C)(C)C)C1OC(=O)C(C)(C)C (stereo partly specified)
EC50: > 200 µM
IC50: 12 µM

C=C(Cl)CSC(=S)N1CCOCC1
outcome: inactive

S=C(S)N1CCNCC1
outcome: inactive

S=C(Oc1ccccc1)SSC(=S)Oc1ccccc1
EC50: > 200 µM
IC50: 19.1 µM

O=S1(c2ccccc2)=NC(Nc2ccccc2)=Nc2ccccc21 (stereo unspecified)
EC50: > 36.3 µM
IC50: 30.2 µM

COC(=O)c1cc(/C=C2\Cc3cc4c(cc3C2=O)CCC4)cc2c1CCC2
EC50: > 200 µM
IC50: > 200 µM

C=C1C(=O)OC2(C)CCC1CC1OC1(C)CCC=C(C)CCC2O (stereo unspecified)
EC50: > 389 µM
IC50: 32.4 µM

N.N.NCCCCCN.O=C([O-])CC(=O)[O-].O=C([O-])CC(=O)[O-].[Pt+4].[Pt+4]
EC50: > 2140 µM
IC50: 6.76 µM

CC1(C)OC(=O)C(=C2CC(c3ccccc3)c3ccccc32)C(=O)O1 (stereo unspecified)
outcome: inactive

O=c1c2ccccc2n2c(=S)[nH]nc2n1-c1ccccc1
EC50: > 200 µM
IC50: > 200 µM

O=[N+]([O-])c1ccc(Cl)c(SSc2cc([N+](=O)[O-])ccc2Cl)c1
EC50: > 39.8 µM
IC50: 14.1 µM

COc1cc2cc(C(=O)N3CC(CCl)c4c3cc(N)c3ccccc43)[nH]c2c(OC)c1OC (stereo unspecified)
EC50: > 0.2 µM
IC50: 0.000832 µM

COc1cc(/C=C2\C(=O)N(c3cccc(NC(C)=O)c3)C(c3ccccc3)S2(=O)=O)cc(OC)c1OC (stereo unspecified)
EC50: > 200 µM
IC50: 87.1 µM

COC(=O)c1ccccc1NC(=O)/C(=N\NC(C)(C)C)C(C#N)c1nc(-c2ccc([N+](=O)[O-])cc2)cs1 (stereo unspecified)
EC50: > 69.2 µM
IC50: > 69.2 µM

O=C1NC2(CCCCC2)N=C2C(Cl)CCCC12Cl (stereo unspecified)
EC50: > 200 µM
IC50: > 200 µM

COc1cc(OC)c2c(=O)c3c([N+](=O)[O-])cccc3n(C)c2c1
EC50: > 100 µM
IC50: > 100 µM

CC(=O)Oc1ccc(C)c2c1[C@H]1CC[C@]3(C)[C@@H](OC(C)=O)CC[C@H]3[C@@H]1CC2
EC50: > 200 µM
IC50: 32.4 µM

N#Cc1c(N)[nH]c(=S)c(C#N)c1-c1ccccc1
EC50: > 200 µM
IC50: 135 µM

CC(C)CCCC(C)[C@H]1CC[C@H]2[C@@H]3CC[C@H]4C[C@@H](CCC=C(c5cc(Cl)c(OCC(=O)O)c(C(=O)O)c5)c5cc(Cl)c(OCC(=O)O)c(C(=O)O)c5)CC[C@]4(C)[C@H]3CC[C@]12C (stereo partly specified)
EC50: 91.2 µM
IC50: > 100 µM

Cc1cc2c(C)nn(Cc3ccc(Cl)cc3Cl)c2c(C#N)c1C
EC50: > 20.9 µM
IC50: > 20.9 µM

c1ccc(CN2CCC3(CC2)SSC2(CCN(Cc4ccccc4)CC2)S3)cc1
EC50: > 100 µM
IC50: 87.1 µM

CC#CC(O)(C(=O)OC1CCCN(C)C1)C1=CC=CCC1 (stereo unspecified)
EC50: > 200 µM
IC50: > 200 µM

Cc1cc(=O)n2c(cc3cccccc32)n1
outcome: inactive

O=Cc1c2c(cc3c1CC1(C3)Cc3cc4c(c(C=O)c3C1)CCCC4)CCCC2
EC50: > 200 µM
IC50: 123 µM

CCCCCN(CCCCC)c1ccc(/C=C/c2ccnc3ccccc23)cc1
EC50: > 67.6 µM
IC50: > 67.6 µM

O=c1ccn(C2OC(CO)C(F)C2F)c(=O)[nH]1 (stereo unspecified)
EC50: > 501 µM
IC50: > 501 µM

O=C(Nc1ccc(Cl)c(Cl)c1)C(=O)C(C(=O)c1ccccc1F)C1OC(=O)c2ccccc21 (stereo unspecified)
EC50: > 195 µM
IC50: 14.1 µM

OC(Cc1cc(CC(O)(C(F)(F)F)C(F)(F)F)nc(CC(O)(C(F)(F)F)C(F)(F)F)c1)(C(F)(F)F)C(F)(F)F
EC50: > 200 µM
IC50: 1.02 µM

CCC[CH2][Sn]1([CH2]CCC)[O]C(=O)c2cc(I)cc(I)c2[O]1
outcome: inactive

ClC1=C(Cc2ccccc2)Cc2ccc3c(c21)CCC3
EC50: > 200 µM
IC50: > 200 µM

C#CCN1CCC2=C(C1)c1c(O)cc(C(C)C(C)CCCCC)cc1OC2(C)C (stereo unspecified)
EC50: > 32.4 µM
IC50: 14.8 µM

CC(C)(C)c1ccc(O)c(Cc2cc(C(C)(C)C)cc(Cc3cc(C(C)(C)C)ccc3O)c2O)c1
EC50: > 39.8 µM
IC50: 12.9 µM

CC1=C(C(=O)Nc2ccc(C)cc2)C(c2cccc([N+](=O)[O-])c2)C(C(=O)Nc2ccc(C)cc2)=C(C)N1
EC50: > 14.5 µM
IC50: > 14.5 µM

Nc1ncnc2c1ncn2C1C=CC(CO)CC1 (stereo unspecified)
EC50: > 200 µM
IC50: > 200 µM

CCOC(=O)C(NNc1ccccc1)C(c1ccccc1)[P+](c1ccccc1)(c1ccccc1)c1ccccc1 (stereo unspecified)
EC50: > 200 µM
IC50: 3.63 µM

COc1cccc(N2C(=O)C3c4[nH]c5ccc(C)cc5c4C4CCC(C)CC4C3C2=O)c1 (stereo unspecified)
EC50: > 100 µM
IC50: > 100 µM

COc1ccc2c(c1)N(S(=O)(=O)c1ccc(C)cc1)C[C@@H]1c3cc(O)c(OCc4ccccc4)cc3O[C@H]21
outcome: inactive

CC1=CC(=O)N(c2c(C)cccc2Cl)C(C)N1 (stereo unspecified)
EC50: > 1000 µM
IC50: > 1000 µM

NC1=NS(=O)(=O)N=C(N)C1=NNc1ccc([N+](=O)[O-])cc1
EC50: > 794 µM
IC50: 126 µM

Cc1ccc(S(=O)(=O)/C(C#N)=C/NC(=S)Nc2ccc(C)cc2C)cc1
outcome: inactive

N#C/C(c1nc2ccccc2[nH]1)=c1\s/c(=C/c2ccccc2)c(=O)n1-c1ccccc1
EC50: > 200 µM
IC50: > 200 µM

O=c1oc2ccccc2c(O)c1C(C/C(=N/O)c1ccccc1)c1ccccc1 (stereo unspecified)
EC50: > 200 µM
IC50: 70.8 µM

C#CCOC(=O)c1ccccc1O
EC50: > 200 µM
IC50: > 200 µM

Cc1ccc(/C=N/NS(=O)(=O)c2ccccc2)cc1
outcome: inactive

O=C1NCC2(CCNCC2)N1c1ccccc1
EC50: > 200 µM
IC50: > 200 µM

CCOP(=O)(OCC)OC1c2[nH]ccc2-c2cc(C(=O)OC)[nH]c2C1OC (stereo unspecified)
EC50: > 200 µM
IC50: 102 µM

c1ccc(-c2nnc(-c3nn(-c4ccccc4)c4nc5ccccc5nc34)o2)cc1
outcome: inactive

COC(=O)C(C#N)=C1c2ccccc2Oc2ccccc21
EC50: > 129 µM
IC50: 66.1 µM

COc1c(Sc2ccccc2)cc(Sc2ccccc2)c2cccnc12
outcome: inactive

CC1(C)O[C@@H]([C@H](O)CO)[C@H](O)[C@@H](C2SCCCS2)O1
EC50: > 200 µM
IC50: > 200 µM

Cc1oc(N)c(S(=O)(=O)c2ccc(Cl)cc2)c1C
EC50: > 200 µM
IC50: 34.7 µM

Clc1ccccc1C1=NN(c2ccccc2)C2c3ccccc3OCC12 (stereo unspecified)
EC50: > 72.4 µM
IC50: > 72.4 µM

COC1=NC2=CC(=O)c3c(c(O)c(C)c4c3C(=O)C(C)(O/C=C/C(OC)C(C)C(OC(C)=O)C(C)C(O)C(C)C(O)C(C)/C=C/C=C\1C)O4)C2=O (stereo unspecified)
EC50: > 200 µM
IC50: 33.1 µM

CCOc1nnc(C)o1
EC50: > 1510 µM
IC50: > 1510 µM

CC(C)=CCN1Cc2cccc3[nH]c(=S)n(c23)C[C@@H]1C
EC50: 0.0302 µM
IC50: 1.74 µM

C[N+]12C=CC=C1C(N1CCCC1)c1scc(-c3ccccc3)c12 (stereo unspecified)
EC50: > 200 µM
IC50: 17.8 µM
